From ChEMBL document CHEMBL1201862, “PubChem BioAssay data set” (2004) come the findings set out here.

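In this assay, cells in 96-well plates receive the compound at five concentrations for 48 hours. Endpoints are linearly interpolated between the surrounding concentrations. The concentration for 50% growth inhibition is given as GI50.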 Calls of active or inactive are those of the source. Cut-off read from the data, not from the text of the source: active = GI50 up to about 1.1 µM and inactive = higher. Where a SMILES comes first, the peptide text is derived from it. The star is where a group is joined. Boc = CC(C)(C)OC(=O)*; OSu = O=C1CCC(=O)N1O*

Test systems include 786-0; HOP-92; U-251; NCI/ADR-RES; OVCAR-3; NCI-H226; HOP-62; OVCAR-4; HCT-15; HCT-116; SR; SF-268; SK-OV-3; TK-10; T47D; SK-MEL-5; NCI-H460; SW-620; CCRF-CEM.
What all share (experiment): NCI-60 cell line screen, 48 h

As to `COc1ccc(C2=NNC(=O)c3ccccc3N2c2nc(-c3cccs3)nc3cc(OC)c(OC)cc23)cc1`, the GI50 in the assay with 786-0 is 2.32 µM (inactive); in the assay with HOP-92, 2.86 µM (inactive); in the assay with U-251 it was 3.3 µM (inactive); in the assay on NCI/ADR-RES it was 5.55 µM (inactive); in the assay with OVCAR-3, 2.61 µM (inactive); in the assay on NCI-H226, 4.56 µM (inactive). Further, the GI50 is 3.13 µM (inactive) with HOP-62; 1.8 µM (inactive) in the assay with OVCAR-4; 5.92 µM with HCT-15; 3.92 µM (inactive) in the assay with HCT-116; 0.673 µM (active) with SR; 6.46 µM (inactive) in the assay with SF-268. Besides, the GI50 is 17 µM (inactive) with SK-OV-3; 5.24 µM (inactive) in the assay with TK-10; 2.76 µM (inactive) in the assay on T47D; 3.72 µM (inactive) with SK-MEL-5; 4.43 µM (inactive) with NCI-H460; 4.86 µM (inactive) in the assay with SW-620.
As to `COc1ccccc1-c1cc(=O)c2ccccc2n1C1CC1`, the GI50 is 3.99 µM (inactive) in the assay on 786-0; 1.78 µM (inactive) in the assay on HOP-92; 3.54 µM (inactive) with U-251; 5.38 µM (inactive) in the assay on NCI/ADR-RES; 1.75 µM (inactive) in the assay on OVCAR-3; 2.42 µM (inactive) in the assay with NCI-H226. Also, the GI50 in the assay with HOP-62 was 3.95 µM (inactive); with HCT-15, 2.55 µM; in the assay on HCT-116 it was 1.23 µM (inactive); in the assay on CCRF-CEM it was 4.83 µM (inactive); with SR, 2.95 µM (inactive); with SF-268, 5.01 µM (inactive). Further, the GI50 in the assay on SK-OV-3 is 6.73 µM (inactive); in the assay on T47D it was 2.37 µM (inactive); in the assay on SK-MEL-5, 4.52 µM (inactive); with NCI-H460, 2.74 µM (inactive); in the assay with SW-620 it was 3.13 µM (inactive).
Consider `COc1cc(S(=O)(=O)Nc2ccc(-c3csc(N4C(=O)C(C)SC4c4ccccc4)n3)cc2)ccc1Cl` (stereo unspecified), for which the GI50 with 786-0 was 20 µM (inactive); in the assay with HOP-92, 31.9 µM (inactive); in the assay on NCI/ADR-RES it was > 100 µM (inactive); with OVCAR-3, > 100 µM (inactive); with NCI-H226, 0.0853 µM (active); with OVCAR-4 it was 39.6 µM (inactive). Also, the GI50 in the assay on HCT-15 is above 100 µM; in the assay with HCT-116, 34.8 µM (inactive); in the assay with CCRF-CEM, 40 µM (inactive); with SR, 25 µM (inactive); with SF-268, 19.7 µM (inactive); in the assay with T47D, 15.2 µM (inactive). The results for the GI50 in the assay on SK-MEL-5 and in the assay on SW-620 were 19.5 µM (inactive) and 35.4 µM (inactive), respectively.
As to `CCN(CC)CCCC(C)Nc1cc(/C=C/c2ccc(Cl)cc2)nc2cc(N(C)C)ccc12` (stereo unspecified), the GI50 in the assay with 786-0 is 2.92 µM (inactive); in the assay on HOP-92, 1.74 µM (inactive); in the assay with U-251, 1.64 µM (inactive); in the assay on NCI/ADR-RES it was 2.19 µM (inactive); in the assay on OVCAR-3, 1.7 µM (inactive); with NCI-H226, 3.71 µM (inactive). Further, the GI50 in the assay on HOP-62 is 1.89 µM (inactive); with HCT-15, 1.67 µM; in the assay on HCT-116, 1.24 µM (inactive); with CCRF-CEM, 1.21 µM (inactive); with SR, 1.25 µM (inactive); with SF-268, 1.83 µM (inactive). Also, the GI50 in the assay on TK-10 was 1.91 µM (inactive); with T47D, 1.66 µM (inactive); in the assay with SK-MEL-5 it was 2.01 µM (inactive); in the assay on NCI-H460 it was 1.67 µM (inactive); in the assay on SW-620, 1.33 µM (inactive).
On to `CN(C)Cc1cc(/N=N/c2ccc(Cl)cc2)cc(CN(C)C)c1O`, for which the GI50 in the assay on 786-0 is 5.53 µM (inactive); in the assay with HOP-92, 2.45 µM (inactive); in the assay on U-251, 7.24 µM (inactive); in the assay on NCI/ADR-RES, 3.07 µM (inactive); in the assay with OVCAR-3, 1.84 µM (inactive); in the assay on NCI-H226, 4.39 µM (inactive). Besides, the GI50 was 2.58 µM (inactive) in the assay on HOP-62; 6.52 µM in the assay on HCT-15; 4.85 µM (inactive) in the assay with HCT-116; 2.1 µM (inactive) with CCRF-CEM; 4.59 µM (inactive) in the assay with SR; 10.8 µM (inactive) in the assay with SF-268. In addition, the GI50 is 17.1 µM (inactive) in the assay with SK-OV-3; 5.94 µM (inactive) in the assay with TK-10; 10.5 µM (inactive) in the assay with T47D; 8.79 µM (inactive) with SK-MEL-5; 5.15 µM (inactive) with NCI-H460; 8.09 µM (inactive) with SW-620.
As to `COCOc1cc(OCOC)cc(C(=O)Oc2ccccc2)c1`, the GI50 in the assay on 786-0, in the assay on HOP-92, in the assay on U-251, in the assay with NCI/ADR-RES, in the assay on OVCAR-3 and with NCI-H226 was > 100 µM (inactive) each time. For the same molecule, the GI50 was > 100 µM (inactive) with HOP-62; > 100 µM (inactive) with OVCAR-4; above 100 µM with HCT-15; > 100 µM (inactive) in the assay with HCT-116; 85.9 µM (inactive) in the assay on SR; > 100 µM (inactive) with SF-268. Besides, the GI50 in the assay on SK-OV-3 is > 100 µM (inactive); in the assay on TK-10 it was > 100 µM (inactive); in the assay on T47D, 57.4 µM (inactive); in the assay on SK-MEL-5, > 100 µM (inactive); in the assay with NCI-H460, > 100 µM (inactive); in the assay on SW-620, > 100 µM (inactive).
With `CC(NC(=O)C(NC(=O)OC(C)(C)C)C(C)C)C(=O)NCC(=O)ON1C(=O)CCC1=O` (stereo not drawn) (Boc-Val-Ala-Gly-OSu; configuration not given here), the GI50 with 786-0 was > 100 µM (inactive); with HOP-92, 22.8 µM (inactive); with U-251 it was > 100 µM (inactive); in the assay on NCI/ADR-RES, > 100 µM (inactive); with OVCAR-3, > 100 µM (inactive); with NCI-H226, > 100 µM (inactive). In addition, the GI50 with HOP-62 was > 100 µM (inactive); in the assay on HCT-15, above 100 µM; in the assay with HCT-116 it was > 100 µM (inactive); with SR it was > 100 µM (inactive); with SF-268 it was > 100 µM (inactive); with SK-OV-3, > 100 µM (inactive). The GI50 in the assay with TK-10, in the assay on T47D, in the assay with SK-MEL-5, in the assay on NCI-H460 and with SW-620 was > 100 µM (inactive) in each case.
As to `COc1c2c(cc3oc(=O)ccc13)OC(C)(C)C=C2` [XANTHOXYLETIN], the GI50 is 22.4 µM (inactive) in the assay on 786-0; 7.29 µM (inactive) in the assay with HOP-92; 24.9 µM (inactive) in the assay on U-251; 26 µM (inactive) with NCI/ADR-RES; 37.9 µM (inactive) in the assay on OVCAR-3; 41.1 µM (inactive) with NCI-H226. For the same molecule, the GI50 in the assay with HOP-62 was 34.9 µM (inactive); in the assay with HCT-15, 23.6 µM; with HCT-116 it was 18.6 µM (inactive); in the assay on SR, 11.5 µM (inactive); in the assay with SF-268, 41.9 µM (inactive); in the assay on SK-OV-3, 40.5 µM (inactive). Moreover, the GI50 was 30.9 µM (inactive) in the assay with TK-10; 1.48 µM (inactive) with T47D; 21.8 µM (inactive) in the assay with SK-MEL-5; 24.2 µM (inactive) in the assay with NCI-H460; 26.1 µM (inactive) in the assay on SW-620.
